Measured values published in patent publication US11109593B2, “Isoxazolin-5-one derivative and herbicide containing same as active ingredient” (HOKKO CHEMICAL INDUSTRY CO., LTD., priority 2017, dated 2021).

Legend:
Format in all cases: in vivo
[1] = tested on: broad leaf weeds (Lindernia pyxidaria and Monochoria vaginalis); test: Test Example 1: herbicidal effect test by treatment of rice paddy soil (immediately after seeding); conditions: 120 g/10a active ingredient, dry weight vs untreated area, 14 days after treatment
Method in brief: (§1)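 Values are herbicidal rates (%) derived from average plant dry weight in treated versus untreated pots 14 days after treatment, run in duplicate. Treatment was a water-diluted emulsion dropped into flooded paddy soil right after sowing, at 120 g active ingredient per 10 ares.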

Echinochloa crus-galli [2] = test: as above; conditions: 120 g/10a active ingredient, dry weight vs untreated area, 14 days after treatment
Method in brief: as §1

Scirpus juncoides [3] = test: as above; conditions: 120 g/10a active ingredient, dry weight vs untreated area, 14 days after treatment
Method in brief: as §1

Amaranthus viridis [4] = test: Test Example 3: herbicidal effect test by treatment of dry field farming soil (one day after seeding); conditions: 120 g/10a active ingredient, evaluated 14 days after treatment
Method in brief: (§2)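 Herbicidal rate (%) = {1 − treated/untreated mean plant dry weight} × 100, scored 14 days after spraying, duplicate pots per concentration. Emulsified compound was water-diluted and applied to soil surface one day post-seeding at 120 g a.i. per 10 ares.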

southern crabgrass [5] = test: as above; conditions: 120 g/10a active ingredient, evaluated 14 days after treatment
Method in brief: as §2

Echinochloa crus-galli [6] = test: as above; conditions: 120 g/10a active ingredient, evaluated 14 days after treatment
Method in brief: as §2

Chenopodium album [7] = test: as above; conditions: 120 g/10a active ingredient, evaluated 14 days after treatment
Method in brief: as §2

[8] = tested on: broad leaf weeds (Lindernia pyxidaria and Monochoria vaginalis); test: Test Example 2: herbicidal effect test by treatment during growing period in paddy rice cultivation (seven days after seeding); conditions: 120 g/10a active ingredient, assessed 14 days after treatment, dry weight vs untreated area
Method in brief: (§3)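 Emulsion formulations, diluted in water, applied dropwise to flooded pots (about 3 cm water) 7 days post-seeding at 120 g a.i./10 ares. Weeds sown 30 seeds each, 0–1 cm deep in puddled paddy soil; greenhouse. Readout: % reduction in plant dry weight vs untreated, day 14, duplicates.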

Echinochloa crus-galli [9] = test: as above; conditions: 120 g/10a active ingredient, assessed 14 days after treatment, dry weight vs untreated area
Method in brief: as §3

Scirpus juncoides [10] = test: as above; conditions: 120 g/10a active ingredient, assessed 14 days after treatment, dry weight vs untreated area
Method in brief: as §3

Amaranthus viridis [11] = test: Test Example 4: herbicidal effect test by treatment of leave and stem in dry field farming (seven days after seeding); conditions: 120 g/10a active ingredient; emulsion sprayed seven days after seeding; evaluated 14 days after treatment
Method in brief: (§4)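 Twenty seeds per species were mixed into the top 1 cm of alluvial soil in 36 cm^2 pots; emulsions were sprayed seven days after seeding at 100 L per 10 ares (120 g active ingredient per 10 ares). Herbicidal rate (%) = {1 − treated/untreated mean dry weight} × 100, 14 days after treatment, duplicate.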

southern crabgrass [12] = test: as above; conditions: 120 g/10a active ingredient; emulsion sprayed seven days after seeding; evaluated 14 days after treatment
Method in brief: as §4

Echinochloa crus-galli [13] = test: as above; conditions: 120 g/10a active ingredient; emulsion sprayed seven days after seeding; evaluated 14 days after treatment
Method in brief: as §4

Chenopodium album [14] = test: as above; conditions: 120 g/10a active ingredient; emulsion sprayed seven days after seeding; evaluated 14 days after treatment
Method in brief: as §4

Compound	Herbicidal rate (%) Lindernia pyxidaria [1] [%]	Herbicidal rate (%) Monochoria vaginalis [1] [%]	Herbicidal rate (%) Echinochloa crus-galli (Echinochloa crus-galli [2]) [%]	Herbicidal rate (%) Scirpus juncoides (Scirpus juncoides [3]) [%]	herbicidal rate, Amaranthus viridis (Amaranthus viridis [4]) [%]	herbicidal rate, southern crabgrass (southern crabgrass [5]) [%]	herbicidal rate, Echinochloa crus-galli (Echinochloa crus-galli [6]) [%]	herbicidal rate, Chenopodium album (Chenopodium album [7]) [%]	Herbicidal rate (%) Lindernia pyxidaria [8] [%]	Herbicidal rate (%) Monochoria vaginalis [8] [%]	Herbicidal rate (%) Echinochloa crus-galli (Echinochloa crus-galli [9]) [%]	Herbicidal rate (%) Scirpus juncoides (Scirpus juncoides [10]) [%]	herbicidal effect (herbicidal rate), Amaranthus viridis (Amaranthus viridis [11]) [%]	herbicidal effect (herbicidal rate), southern crabgrass (southern crabgrass [12]) [%]	herbicidal effect (herbicidal rate), Echinochloa crus-galli (Echinochloa crus-galli [13]) [%]	herbicidal effect (herbicidal rate), Chenopodium album (Chenopodium album [14]) [%]
Cc1c(Cc2ccccc2N(C(=O)CC(C)C)S(=O)(=O)C(F)(F)F)c(=O)on1CC(C)(C)C [Compound 1-355]	90	90	90	90	90	90	90	90	90	90	90	90	40	90	90	40
CCCC(C)n1oc(=O)c(Cc2ccccc2N(C(=O)CC(C)C)S(=O)(=O)C(F)(F)F)c1C (stereo not shown) [Compound 1-356]	90	60	100	90	90	90	90	60	60	70	100	90	60	80	90	60
COCC(C)n1oc(=O)c(Cc2ccccc2N(C(=O)CC(C)C)S(=O)(=O)C(F)(F)F)c1C (stereo not shown) [Compound 1-357]	90	90	90	90	90	90	90	90	90	90	90	90	40	90	90	40
CSCCn1oc(=O)c(Cc2ccccc2N(C(=O)CC(C)C)S(=O)(=O)C(F)(F)F)c1C [Compound 1-358]	90	90	90	90	90	90	90	90	90	90	90	90	40	90	90	40
Cc1c(Cc2ccccc2N(C(=O)CC(C)C)S(=O)(=O)C(F)(F)F)c(=O)on1C(C)c1ccccc1 (stereo not shown) [Compound 1-359]	90	90	90	90	90	90	90	90	90	90	90	90	40	90	90	40
Cc1c(Cc2ccccc2N(C(=O)C2CC2)S(=O)(=O)C(F)(F)F)c(=O)on1C(C)(C)C [Compound 1-403]	90	90	90	90	90	90	90	90	90	90	90	90	40	90	90	40
CCC(C)n1oc(=O)c(Cc2ccccc2N(C(=O)C2CC2)S(=O)(=O)C(F)(F)F)c1C (stereo not shown) [Compound 1-404]	90	90	90	90	90	90	90	90	90	90	90	90	40	90	90	40
